Source: article PMC12298827, “Subchronic Toxicities of Four Per- and Polyfluoroalkyl Substances (PFASs) by Oral Exposure in Sprague–Dawley Rats” (Toxics, 2025)

Test system: male and female Sprague–Dawley rats
Test: 90-day subchronic oral gavage toxicity study
Format: in vivo, rat
Conditions: female
Method: Subchronic (90-day) studies were performed in accordance with current U.S. EPA’s Toxic Substances Control Act Good Laboratory Practice (GLP) Standards, with the following two general exceptions to the GLP guidelines: Analysis of the dose formulations was conducted according to RTI-approved Standard Operating Procedures, and corn oil (the vehicle) was not characterized (certificate of analysis from the vendor is available in the appendices to the final reports). Male and female Sprague–Dawley rats (five dose levels plus a control, n = 10/sex/dose group, corn oil vehicle dose volume of 3 mL/kg; oral gavage) were used in these studies, and the rats were euthanized on SD 91. The dose levels for PFHI were 0, 12.5, 25, 50, 100, and 200 mg/kg-day. The dose levels for MHFPK were 0, 18.8, 37.5, 75, 150, and 300 mg/kg-day. The dose levels for PFNAC were 0, 0.1, 0.3, 1.0, 3.0, and 10 mg/kg-day for male rats and 0, 0.3, 1.0, 3.0, 10, and 30 mg/kg-day for female rats. For CTFPA, the dose levels were 0, 1.9, 3.8. 7.5, 15, and 30 mg/kg-day for male rats and 0, 6.3, 12.5, 25, 50, and 100 mg/kg-day for female rats. For each PFAS, three batches of dosing solution were prepared. The time between the batch preparation of the dosing solutions ranged between 29 and 39 days. Blood samples were collected from all the rats at termination for serum chemistry, hematology, coagulation, and the analysis of the parent PFAS chemical in the plasma. In vivo data collection and further detail on the endpoints examined postmortem are described below.
The rats were observed twice daily for morbidity and mortality throughout the study period. At least once prior to randomization to test groups and weekly thereafter, the rats were physically examined, and bodyweights were obtained. Feed consumption was quantified weekly starting on SD 1.
Neurotoxicity was evaluated using the functional observational battery (FOB) and measuring locomotor activity (LMA) 2–4 h post dosing on SDs 78–80 and 80–84, respectively. For both the 14- and 90-day studies, an ophthalmologic examination was conducted prior to randomization and near the end of the study, using indirect ophthalmoscopy and slit–lamp biomicroscopy (as needed) after the administration of a mydriatic solution.
Hematology, biochemistry, and coagulation endpoints were measured at the termination of the study. A Siemens Advia 2120i hematology analyzer (Siemens Healthineers, Erlangen, Germany) was used to measure (or calculate) the parameters related to the complete blood count, leukocyte differential count, and reticulocyte count. The hematology parameters are listed and described in Table 2. The prothrombin time […] and activated partial thromboplastin time (APTT) were measured using an Instrumentation Laboratory (Bedford, MA, USA) ACL Elite Pro coagulation analyzer (laser–nephelometric centrifugal method).
At necropsy, the rats were visually examined for external abnormalities and organ weights (absolute and relative to the BW and brain weight), which were recorded (paired organs weighed together). The tissues were preserved in 10% neutral buffered formalin (NBF), except for the ocular tissues, testes, and epididymides, which were preserved in modified Davidson’s fixative and later transferred to 10% NBF. Bone marrow smears were prepared from the femurs, and the slides were air-dried, fixed in methanol, stained, and stored at room temperature for possible future evaluation. The preserved tissues were embedded in paraffin, sectioned, stained with hematoxylin and eosin, and examined by a board-certified veterinary pathologist.
Statistical analysis was performed using Provantis™ Version 10 or greater (Instem LSS, Limited; Stone, Staffordshire, UK). Differences among the treatment groups compared to the control were evaluated using one-way analysis of variance (ANOVA) if the underlying assumptions of a normal distribution (Shapiro–Wilk test) and the homogeneity of the variance (Levene’s test) were satisfied. […]

C=CC(=O)OCC(F)(F)C(F)(F)C(F)(F)C(F)(F)C(F)(F)C(F)(F)C(F)(F)C(F)F [PFNAC, 1H,1H,9H-Perfluorononyl acrylate]
Kidney Weight (1.0 mg/kg-day): 1.73 g
Kidney/Body Weight (1.0 mg/kg-day): 0.59%
Kidney/Brain Weight (1.0 mg/kg-day): 90.7%
Liver Weight (1.0 mg/kg-day): 7.89 g
Liver/Body Weight (1.0 mg/kg-day): 2.67%
Liver/Brain Weight (1.0 mg/kg-day): 412%
MPV (1.0 mg/kg-day): 7.59 ± 0.74 fL
PT (1.0 mg/kg-day): 14.03 s
RBC (1.0 mg/kg-day): 7.303±0.562 M/µL
Total BW change (1.0 mg/kg-day): 94.80 g
Total Food Consumed (1.0 mg/kg-day): 1444 g
% BW Gain (3.0 mg/kg-day): 47.09%
% Diff, % BW Gain (3.0 mg/kg-day): -3.49%
% Diff, Total BW change (3.0 mg/kg-day): -2.02%
% Diff, Total Food Consumed (3.0 mg/kg-day): 7.48%
A/G (3.0 mg/kg-day): 1.15±0.06 ratio
ABEOS (3.0 mg/kg-day): 0.083±0.028 K/µL
ABNEUT (3.0 mg/kg-day): 1.419±0.734 K/µL
ABRETi (3.0 mg/kg-day): 176.48±43.69 10^9/L
ALB (3.0 mg/kg-day): 4.56 ± 0.18 g/dL
ALPi (3.0 mg/kg-day): 55.4±20.6 U/L
APTT (3.0 mg/kg-day): 20.34 s
BUN (3.0 mg/kg-day): 16.4 ± 1.3 mg/dL
CHOL (3.0 mg/kg-day): 92.3 ± 16.3 mg/dL
GLOB (3.0 mg/kg-day): 3.97 ± 0.13 g/dL
GLUC (3.0 mg/kg-day): 104.4 ± 8.0 mg/dL
HCT (3.0 mg/kg-day): 41.82±2.32%
HGB (3.0 mg/kg-day): 13.37 ± 0.68 g/dL
Kidney Weight (3.0 mg/kg-day): 1.83 g
Kidney/Body Weight (3.0 mg/kg-day): 0.61%
Kidney/Brain Weight (3.0 mg/kg-day): 91.1%
Liver Weight (3.0 mg/kg-day): 7.96 g
Liver/Body Weight (3.0 mg/kg-day): 2.67%
Liver/Brain Weight (3.0 mg/kg-day): 396%
MPV (3.0 mg/kg-day): 7.77 ± 0.42 fL
PT (3.0 mg/kg-day): 14.15 s
RBC (3.0 mg/kg-day): 7.262±0.327 M/µL
Total BW change (3.0 mg/kg-day): 99.10 g
Total Food Consumed (3.0 mg/kg-day): 1512 g
% BW Gain (10 mg/kg-day): 46.00%
% Diff, % BW Gain (10 mg/kg-day): -5.72%
% Diff, Total BW change (10 mg/kg-day): -5.60%
% Diff, Total Food Consumed (10 mg/kg-day): 5.11%
A/G (10 mg/kg-day): 1.17±0.07 ratio
ABEOS (10 mg/kg-day): 0.081±0.022 K/µL
ABNEUT (10 mg/kg-day): 1.562±1.084 K/µL
ABRETi (10 mg/kg-day): 160.88±34.97 10^9/L
ALB (10 mg/kg-day): 4.66 ± 0.39 g/dL
ALPi (10 mg/kg-day): 50.5±7.3 U/L
APTT (10 mg/kg-day): 22.50 s
BUN (10 mg/kg-day): 19.1 ± 3.5 mg/dL
CHOL (10 mg/kg-day): 77.7 ± 14.0 mg/dL
GLOB (10 mg/kg-day): 3.98 ± 0.29 g/dL
GLUC (10 mg/kg-day): 108.8 ± 12.0 mg/dL
HCT (10 mg/kg-day): 41.08±2.03%
HGB (10 mg/kg-day): 13.12 ± 0.63 g/dL
Kidney Weight (10 mg/kg-day): 1.81 g
Kidney/Body Weight (10 mg/kg-day): 0.62%
Kidney/Brain Weight (10 mg/kg-day): 89.98%
Liver Weight (10 mg/kg-day): 8.42 g
Liver/Body Weight (10 mg/kg-day): 2.88%
Liver/Brain Weight (10 mg/kg-day): 419%
MPV (10 mg/kg-day): 7.80 ± 0.60 fL
PT (10 mg/kg-day): 14.11 s
RBC (10 mg/kg-day): 7.241±0.358 M/µL
Total BW change (10 mg/kg-day): 95.48 g
Total Food Consumed (10 mg/kg-day): 1479 g
% BW Gain (30 mg/kg-day): 52.06%
% Diff, % BW Gain (30 mg/kg-day): 6.69%
% Diff, Total BW change (30 mg/kg-day): 5.59%
% Diff, Total Food Consumed (30 mg/kg-day): 8.40%
ABEOS (30 mg/kg-day): 0.082±0.026 K/µL
ABNEUT (30 mg/kg-day): 1.118±0.358 K/µL
ABRETi (30 mg/kg-day): 164.87±31.05 10^9/L
APTT (30 mg/kg-day): 22.09 s
HCT (30 mg/kg-day): 40.37±2.37%
HGB (30 mg/kg-day): 13.04 ± 0.72 g/dL
Kidney Weight (30 mg/kg-day): 1.99 g
Kidney/Body Weight (30 mg/kg-day): 0.65%
Kidney/Brain Weight (30 mg/kg-day): 101%
Liver Weight (30 mg/kg-day): 9.83 g
